Patent publication US12522607B2, “Substituted pyrazolo[3,4-d]pyrimidines as wee-1 inhibitors” (WIGEN BIOMEDICINE TECHNOLOGY (SHANGHAI) CO., LTD., priority 2020, dated 2026)

Tests used:
HT29 cells = test: Antiproliferative activity against HT29 cells (Cell Titer-Lumi, ATP content); format: cell-based; conditions: Homo sapiens, HT-29, 72 after compound addition, read-out: HT-29 cells Anti-proliferative activity (IC50 for the inhibition against HT-29 cell growth)
Procedure: Example 343. Assay for Antiproliferative Activity Against HT29 Cells
3000 HT29 cells were seed in a 384-well plate (Fisher 142762). After the cells adhered to the wall overnight, the compounds diluted in a gradient were added. 72 later, Cell Titer-Lumi (Beyotime C0068XL) was added to determine the content of ATP in the cells. The growth of the cells was evaluated, and the IC50 for the inhibition of the compounds against cell growth was calculated.

Wee-1 kinase = molecular target: T1, Wee-1 kinase (Homo sapiens, UniProt P30291); test: Inhibitory activity against Wee-1 kinase (Lanthra Screen Wee-1 kinase kit, Tracer 178); format: binding; conditions: Wee-1 kinase 5 nM, Tracer 178 50 nM, 1 h room temperature
T1 construct: purchased Invitrogen
T1 sequence (P30291 whole entry): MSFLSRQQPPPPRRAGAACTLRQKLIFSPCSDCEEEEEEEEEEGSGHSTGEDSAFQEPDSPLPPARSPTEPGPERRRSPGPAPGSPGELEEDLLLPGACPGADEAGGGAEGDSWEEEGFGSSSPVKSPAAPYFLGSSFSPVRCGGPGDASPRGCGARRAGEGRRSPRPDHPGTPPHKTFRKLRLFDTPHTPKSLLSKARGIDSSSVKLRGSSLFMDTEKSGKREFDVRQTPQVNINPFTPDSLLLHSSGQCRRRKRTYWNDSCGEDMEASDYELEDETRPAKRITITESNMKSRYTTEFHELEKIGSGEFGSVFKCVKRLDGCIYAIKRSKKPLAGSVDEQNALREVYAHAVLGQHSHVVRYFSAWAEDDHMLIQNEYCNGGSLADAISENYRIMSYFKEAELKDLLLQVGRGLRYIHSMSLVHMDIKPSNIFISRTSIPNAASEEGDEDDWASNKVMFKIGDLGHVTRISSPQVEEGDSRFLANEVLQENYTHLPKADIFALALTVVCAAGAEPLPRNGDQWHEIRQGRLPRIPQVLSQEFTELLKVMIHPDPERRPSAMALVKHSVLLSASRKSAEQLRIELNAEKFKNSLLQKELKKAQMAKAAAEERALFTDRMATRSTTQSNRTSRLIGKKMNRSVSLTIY
Procedure: Example 342. Assay for Inhibitory Activity of Compounds Against Wee-1 Kinase
The inhibitory activity of compounds against Wee-1 kinase was determined by using the Lanthra Screen Wee-1 kinase kit (Invitrogen). 5 μL of the compound diluted in a gradient with DMSO, 5 μL. of Wee-1 kinase (at a final concentration of 5 nM), 5 μL of an Eu-Anti-GST antibody (at a final concentration of 2 nM) mixture and 5 μL of kinase Tracer 178 (at a final concentration of 50 nM) were mixed well. The plate was read after incubation at room temperature for one hour. For comparison with the DMSO solvent control group, IC50 for the inhibition activity of the compounds against Wee-1 kinase was calculated.

Row | SMILES | IC50 (HT29 cells) [nM] | IC50 (Wee-1 kinase) [nM]
1 | C=CCn1c(=O)c2cnc(Nc3ccc(N4CCC(C)(N)CC4)c(C)c3)nc2n1-c1ccc(=O)n(C(C)C)n1 [Compound 108] | ≤ 1000 | ≤ 30
2 | C=CCn1c(=O)c2cnc(Nc3ccc(N4CCC(C)(N)CC4)c(OC)c3)nc2n1-c1ccc(=O)n(C(C)C)n1 [Compound 109] | ≤ 1000 | ≤ 30
3 | C=CCn1c(=O)c2cnc(Nc3ccc(N4CCC(C)(NC)CC4)cc3)nc2n1-c1ccc(=O)n(C(C)C)n1 [Compound 110] | ≤ 1000 | ≤ 30
4 | C=CCn1c(=O)c2cnc(Nc3ccc(N4CCC(C)(NC)CC4)c(C)c3)nc2n1-c1ccc(=O)n(C(C)C)n1 [Compound 111] | ≤ 1000 | ≤ 30
5 | C=CCn1c(=O)c2cnc(Nc3ccc(N4CCC(C)(NC)CC4)c(OC)c3)nc2n1-c1ccc(=O)n(C(C)C)n1 [Compound 112] | ≤ 1000 | ≤ 30
6 | C=CCn1c(=O)c2cnc(Nc3ccc(N4CCC(C)(N(C)C)CC4)cc3)nc2n1-c1ccc(=O)n(C(C)C)n1 [Compound 113] | ≤ 1000 | ≤ 30
7 | C=CCn1c(=O)c2cnc(Nc3ccc(N4CCC(C)(N(C)C)CC4)c(C)c3)nc2n1-c1ccc(=O)n(C(C)C)n1 [Compound 114] | ≤ 1000 | ≤ 30
8 | C=CCn1c(=O)c2cnc(Nc3ccc(N4CCC(C)(N(C)C)CC4)c(OC)c3)nc2n1-c1ccc(=O)n(C(C)C)n1 [Compound 115] | ≤ 1000 | ≤ 30
9 | C=CCn1c(=O)c2cnc(Nc3ccc(N4C[C@@H](C)N[C@@H](C)C4)cc3)nc2n1-c1ccc(=O)n(C(C)C)n1 [Compound 116] | ≤ 1000 | ≤ 30
10 | C=CCn1c(=O)c2cnc(Nc3ccc(N4C[C@@H](C)N(C)[C@@H](C)C4)cc3)nc2n1-c1ccc(=O)n(C(C)C)n1 [Compound 117] | ≤ 1000 | ≤ 30
11 | C=CCn1c(=O)c2cnc(Nc3ccc(N4C[C@@H](C)N[C@@H](C)C4)c(C)c3)nc2n1-c1ccc(=O)n(C(C)C)n1 [Compound 118] | ≤ 1000 | ≤ 30
12 | C=CCn1c(=O)c2cnc(Nc3ccc(N4C[C@@H](C)N(C)[C@@H](C)C4)c(C)c3)nc2n1-c1ccc(=O)n(C(C)C)n1 [Compound 119] | ≤ 1000 | ≤ 30
13 | C=CCn1c(=O)c2cnc(Nc3ccc(N4C[C@@H](C)N[C@@H](C)C4)c(Cl)c3)nc2n1-c1ccc(=O)n(C(C)C)n1 [Compound 120] | ≤ 1000 | ≤ 30
14 | C=CCn1c(=O)c2cnc(Nc3ccc(N4C[C@@H](C)N(C)[C@@H](C)C4)c(Cl)c3)nc2n1-c1ccc(=O)n(C(C)C)n1 [Compound 121] | ≤ 1000 | ≤ 30
15 | C=CCn1c(=O)c2cnc(Nc3ccc(N4C[C@@H](C)N[C@@H](C)C4)c(C(F)(F)F)c3)nc2n1-c1ccc(=O)n(C(C)C)n1 [Compound 122] | ≤ 1000 | ≤ 30
16 | C=CCn1c(=O)c2cnc(Nc3ccc(N4C[C@@H](C)N(C)[C@@H](C)C4)c(C(F)(F)F)c3)nc2n1-c1ccc(=O)n(C(C)C)n1 [Compound 123] | ≤ 1000 | ≤ 30
17 | C=CCn1c(=O)c2cnc(Nc3ccc(N4C[C@H](C)NC[C@H]4C)cc3)nc2n1-c1ccc(=O)n(C(C)C)n1 [Compound 124] | ≤ 1000 | ≤ 30
18 | C=CCn1c(=O)c2cnc(Nc3ccc(N4C[C@H](C)N(C)C[C@H]4C)cc3)nc2n1-c1ccc(=O)n(C(C)C)n1 [Compound 125] | ≤ 1000 | ≤ 30
19 | C=CCn1c(=O)c2cnc(Nc3ccc(N4C[C@H](C)NC[C@H]4C)c(C)c3)nc2n1-c1ccc(=O)n(C(C)C)n1 [Compound 126] | ≤ 1000 | ≤ 30
20 | C=CCn1c(=O)c2cnc(Nc3ccc(N4C[C@H](C)N(C)C[C@H]4C)c(C)c3)nc2n1-c1ccc(=O)n(C(C)C)n1 [Compound 127] | ≤ 1000 | ≤ 30
21 | C=CCn1c(=O)c2cnc(Nc3ccc(N4CCN[C@@H](C)C4)cc3)nc2n1-c1ccc(=O)n(C(C)C)n1 [Compound 128] | ≤ 1000 | ≤ 30
22 | C=CCn1c(=O)c2cnc(Nc3ccc(N4CCN(C)[C@@H](C)C4)cc3)nc2n1-c1ccc(=O)n(C(C)C)n1 [Compound 129] | ≤ 1000 | ≤ 30
23 | C=CCn1c(=O)c2cnc(Nc3ccc(N4CCN[C@@H](C)C4)c(C)c3)nc2n1-c1ccc(=O)n(C(C)C)n1 [Compound 130] | ≤ 1000 | ≤ 30
24 | C=CCn1c(=O)c2cnc(Nc3ccc(N4CCN[C@H](C)C4)cc3)nc2n1-c1ccc(=O)n(C(C)C)n1 [Compound 131] | ≤ 1000 | ≤ 30
25 | C=CCn1c(=O)c2cnc(Nc3ccc(N4CCN(C)[C@H](C)C4)cc3)nc2n1-c1ccc(=O)n(C(C)C)n1 [Compound 132] | ≤ 1000 | ≤ 30

Row | SMILES | IC50 (HT29 cells) [nM] | IC50 (Wee-1 kinase) [nM]
26 | C=CCn1c(=O)c2cnc(Nc3ccc(N4CCN[C@H](C)C4)c(C)c3)nc2n1-c1ccc(=O)n(C(C)C)n1 [Compound 133] | ≤ 1000 | ≤ 30
27 | C=CCn1c(=O)c2cnc(Nc3ccc(N4CCN(C)[C@H](C)C4)c(C)c3)nc2n1-c1ccc(=O)n(C(C)C)n1 [Compound 134] | ≤ 1000 | ≤ 30
28 | C=CCn1c(=O)c2cnc(Nc3ccc(N4CC5CCC(C4)N5)cc3)nc2n1-c1ccc(=O)n(C(C)C)n1 [Compound 135] | 1000 to 3000 | 30 to 100
29 | C=CCn1c(=O)c2cnc(Nc3ccc(N4CC5CCC(C4)N5C)cc3)nc2n1-c1ccc(=O)n(C(C)C)n1 [Compound 136] | 1000 to 3000 | 30 to 100
30 | C=CCn1c(=O)c2cnc(Nc3ccc(N4CC5CCC(C4)N5)c(C)c3)nc2n1-c1ccc(=O)n(C(C)C)n1 [Compound 137] | 1000 to 3000 | ≤ 30
31 | C=CCn1c(=O)c2cnc(Nc3ccc(N4CC5CCC(C4)N5C)c(C)c3)nc2n1-c1ccc(=O)n(C(C)C)n1 [Compound 138] | 1000 to 3000 | ≤ 30
32 | C=CCn1c(=O)c2cnc(Nc3ccc(N4CCN(C5CCN(C)CC5)CC4)c(C)c3)nc2n1-c1ccc(=O)n(C(C)C)n1 [Compound 139] | ≤ 1000 | ≤ 30
33 | C=CCn1c(=O)c2cnc(Nc3ccc(N4CCN(C5CCN(C)CC5)CC4)c(F)c3)nc2n1-c1ccc(=O)n(C(C)C)n1 [Compound 140] | ≤ 1000 | ≤ 30
34 | C=CCn1c(=O)c2cnc(Nc3ccc(N4CCN(C5CCN(C)CC5)CC4)c(OC)c3)nc2n1-c1ccc(=O)n(C(C)C)n1 [Compound 141] | ≤ 1000 | ≤ 30
35 | C=CCn1c(=O)c2cnc(Nc3ccc(N4CCC(N5CCN(C)CC5)CC4)cc3)nc2n1-c1ccc(=O)n(C(C)C)n1 [Compound 142] | ≤ 1000 | ≤ 30
36 | C=CCn1c(=O)c2cnc(Nc3ccc(N4CCC(N5CCN(C)CC5)CC4)c(C)c3)nc2n1-c1ccc(=O)n(C(C)C)n1 [Compound 143] | ≤ 1000 | ≤ 30
37 | C=CCn1c(=O)c2cnc(Nc3ccc(N4CCC(N5CCN(C)CC5)CC4)c(OC)c3)nc2n1-c1ccc(=O)n(C(C)C)n1 [Compound 144] | ≤ 1000 | ≤ 30
38 | C=CCn1c(=O)c2cnc(Nc3ccc(N4CCC(N5CCCCC5)CC4)cc3)nc2n1-c1ccc(=O)n(C(C)C)n1 [Compound 145] | ≤ 1000 | ≤ 30
39 | C=CCn1c(=O)c2cnc(Nc3ccc(N4CCC(N5CCCCC5)CC4)c(C)c3)nc2n1-c1ccc(=O)n(C(C)C)n1 [Compound 146] | ≤ 1000 | ≤ 30
40 | C=CCn1c(=O)c2cnc(Nc3ccc(N4CCC(N5CCCCC5)CC4)c(OC)c3)nc2n1-c1ccc(=O)n(C(C)C)n1 [Compound 147] | ≤ 1000 | ≤ 30
41 | C=CCn1c(=O)c2cnc(Nc3ccc(N4CCC(N5CCOCC5)CC4)cc3)nc2n1-c1ccc(=O)n(C(C)C)n1 [Compound 148] | ≤ 1000 | ≤ 30
42 | C=CCn1c(=O)c2cnc(Nc3ccc(N4CCC(N5CCOCC5)CC4)c(C)c3)nc2n1-c1ccc(=O)n(C(C)C)n1 [Compound 149] | ≤ 1000 | ≤ 30
43 | C=CCn1c(=O)c2cnc(Nc3ccc(N4CCC(N5CCOCC5)CC4)c(OC)c3)nc2n1-c1ccc(=O)n(C(C)C)n1 [Compound 150] | ≤ 1000 | ≤ 30
44 | C=CCn1c(=O)c2cnc(Nc3ccc(N4CCC(N5CCC(F)(F)CC5)CC4)cc3)nc2n1-c1ccc(=O)n(C(C)C)n1 [Compound 151] | ≤ 1000 | ≤ 30
45 | C=CCn1c(=O)c2cnc(Nc3ccc(N4CCC(N5CCC(F)(F)CC5)CC4)c(C)c3)nc2n1-c1ccc(=O)n(C(C)C)n1 [Compound 152] | ≤ 1000 | ≤ 30
46 | C=CCn1c(=O)c2cnc(Nc3ccc(N4CCC(N5CCC(F)(F)CC5)CC4)c(OC)c3)nc2n1-c1ccc(=O)n(C(C)C)n1 [Compound 153] | ≤ 1000 | ≤ 30
47 | C=CCn1c(=O)c2cnc(Nc3ccc(N4CC5(CNC5)C4)cc3)nc2n1-c1ccc(=O)n(C(C)C)n1 [Compound 154] | 1000 to 3000 | ≤ 30
48 | C=CCn1c(=O)c2cnc(Nc3ccc(N4CC5(CNC5)C4)c(C)c3)nc2n1-c1ccc(=O)n(C(C)C)n1 [Compound 155] | ≤ 1000 | ≤ 30
49 | C=CCn1c(=O)c2cnc(Nc3ccc(N4CC5(CNC5)C4)c(OC)c3)nc2n1-c1ccc(=O)n(C(C)C)n1 [Compound 156] | 1000 to 3000 | ≤ 30
50 | C=CCn1c(=O)c2cnc(Nc3ccc(N4CC5(CN(C)C5)C4)cc3)nc2n1-c1ccc(=O)n(C(C)C)n1 [Compound 157] | ≤ 1000 | ≤ 30
